Data from patent US4017611A, “Control of insects with 3-hydroxymethacrylic acid methyl ester dimethylthionophosphate” (priority 1970, dated 1977).
Like-named read-outs stand apart in the source and are kept apart here.

Assays:
[1] = system: Sitophilus granarius; test: Durability (disinfection) test on wheat, grain weevil; assay type: in vivo; conditions: 168 h, read-out: % animals dead after one week exposure
Excerpt: (§1) Wheat was shaken up with 5% dusting agent and then mixed again repeatedly with untreated wheat at half the poison concentration. In this way, a dilution series with concentrations of 50 - 25 - 12 - 6 - 3 - 1.5 ppm was obtained.
(§2) Since the test is repeated once per month, the desired information is obtained concerning the residual effect. In the test, the important pests in storage protection were chosen, viz, the grain weevil (Sitophilus granarius) - lesser grain borer (Rhizopertha dominica) and the larvae of the Khapra beetle (Trogoderma granarium), which are very resistant to insecticides. 20 test insects were tested per concentration and the results are expressed in the following table.

[2] = system: Rhizopertha dominica; test: Durability (disinfection) test on wheat, lesser grain borer; assay type: in vivo; conditions: Rhyzopertha dominica, 168 h, read-out: % animals dead after one week exposure
Excerpt: as §1, §2

[3] = system: Trogoderma granarium (L); test: Durability (disinfection) test on wheat, larvae of the Khapra beetle; assay type: in vivo; conditions: 168 h, read-out: % animals dead after one week exposure
Excerpt: as §1, §2

[4] = system: Sit. Granarius; test: Diffusion action in wheat (gas phase between wheat grains); assay type: in vivo; conditions: Sitophilus granarius, 168 h, 50 ppm treated wheat layer, read-out: Mortality in % after 7 days exposure time
Excerpt: A plexiglass box was divided by means of wire grids into ten vertical layers each 1 cm thick. Each compartment was filled with wheat grains. The first compartment contained wheat grains which had been treated with 50 ppm active agent (5% dusting agent). The remainder of the compartment contained untreated wheat. All the compartments were then supplied with grain weevils. The mortality was noted after 7 days exposure time and the results are expressed in the following table. Diffusion of active substance in gas phase between the wheat grains

[5] = Acute oral toxicity (warm blooded toxicity) in rats; conditions: rat, in vivo, po

Which mortality at 1.5 ppm ([1]; wheat fresh) does the source give for COP(=O)(OC)OC=C(Cl)Cl [DDVP, dimethyldichlorvinylphosphate, reference compound] here?
Its mortality at 1.5 ppm is 100%.

What about the mortality at 1.5 ppm ([1]; wheat stored 1 month) of the same molecule?
The mortality at 1.5 ppm was 0%.

And the mortality at 1.5 ppm ([1]; wheat stored 2 months)?
The mortality at 1.5 ppm was 0%.

What about the mortality at 1.5 ppm ([1]; wheat stored 3 months) of the same molecule?
Its mortality at 1.5 ppm is 0%.

And the mortality at 3 ppm ([1]; wheat fresh)?
The mortality at 3 ppm was 100%.

What about the mortality at 3 ppm ([1]; wheat stored 1 month) of the same molecule?
The mortality at 3 ppm was 5%.

What about the mortality at 3 ppm ([1]; wheat stored 2 months) of the same molecule?
Its mortality at 3 ppm is 0%.

And the mortality at 3 ppm ([1]; wheat stored 3 months)?
Its mortality at 3 ppm is 0%.

What about the mortality at 6 ppm ([1]; wheat fresh) of the same molecule?
The mortality at 6 ppm was 100%.

What about the mortality at 6 ppm ([1]; wheat stored 1 month) of the same molecule?
The mortality at 6 ppm was 25%.

What about the mortality at 6 ppm ([1]; wheat stored 2 months) of the same molecule?
The mortality at 6 ppm was 0%.

And the mortality at 6 ppm ([1]; wheat stored 3 months)?
Its mortality at 6 ppm is 0%.

And the mortality at 12 ppm ([1]; wheat fresh)?
The mortality at 12 ppm was 100%.

And the mortality at 12 ppm ([1]; wheat stored 1 month)?
The mortality at 12 ppm was 100%.

And the mortality at 12 ppm ([1]; wheat stored 2 months)?
The mortality at 12 ppm was 55%.

What about the mortality at 12 ppm ([1]; wheat stored 3 months) of the same molecule?
Its mortality at 12 ppm is 0%.

What about the mortality at 25 ppm ([1]; wheat fresh) of the same molecule?
The mortality at 25 ppm was 100%.

What about the mortality at 25 ppm ([1]; wheat stored 1 month) of the same molecule?
The mortality at 25 ppm was 100%.

What about the mortality at 25 ppm ([1]; wheat stored 2 months) of the same molecule?
The mortality at 25 ppm was 100%.

What about the mortality at 25 ppm ([1]; wheat stored 3 months) of the same molecule?
The mortality at 25 ppm was 50%.

What about the mortality at 50 ppm ([1]; wheat fresh) of the same molecule?
The mortality at 50 ppm was 100%.

What about the mortality at 50 ppm ([1]; wheat stored 1 month) of the same molecule?
Its mortality at 50 ppm is 100%.

What about the mortality at 50 ppm ([1]; wheat stored 2 months) of the same molecule?
Its mortality at 50 ppm is 100%.

And the mortality at 50 ppm ([1]; wheat stored 3 months)?
The mortality at 50 ppm was 99%.

What about the mortality at 1.5 ppm ([2]; wheat fresh) of the same molecule?
The mortality at 1.5 ppm was 95%.

What about the mortality at 1.5 ppm ([2]; wheat stored 1 month) of the same molecule?
The mortality at 1.5 ppm was 0%.

What about the mortality at 1.5 ppm ([2]; wheat stored 2 months) of the same molecule?
The mortality at 1.5 ppm was 5%.

And the mortality at 1.5 ppm ([2]; wheat stored 3 months)?
Its mortality at 1.5 ppm is 0%.

And the mortality at 3 ppm ([2]; wheat fresh)?
The mortality at 3 ppm was 100%.

And the mortality at 3 ppm ([2]; wheat stored 1 month)?
The mortality at 3 ppm was 5%.

What about the mortality at 3 ppm ([2]; wheat stored 2 months) of the same molecule?
The mortality at 3 ppm was 0%.

And the mortality at 3 ppm ([2]; wheat stored 3 months)?
Its mortality at 3 ppm is 0%.

And the mortality at 6 ppm ([2]; wheat fresh)?
The mortality at 6 ppm was 100%.

And the mortality at 6 ppm ([2]; wheat stored 1 month)?
Its mortality at 6 ppm is 10%.

And the mortality at 6 ppm ([2]; wheat stored 2 months)?
Its mortality at 6 ppm is 5%.

And the mortality at 6 ppm ([2]; wheat stored 3 months)?
Its mortality at 6 ppm is 0%.

And the mortality at 12 ppm ([2]; wheat fresh)?
Its mortality at 12 ppm is 100%.

And the mortality at 12 ppm ([2]; wheat stored 1 month)?
Its mortality at 12 ppm is 15%.

What about the mortality at 12 ppm ([2]; wheat stored 2 months) of the same molecule?
Its mortality at 12 ppm is 20%.

What about the mortality at 12 ppm ([2]; wheat stored 3 months) of the same molecule?
The mortality at 12 ppm was 0%.

And the mortality at 25 ppm ([2]; wheat fresh)?
The mortality at 25 ppm was 100%.

And the mortality at 25 ppm ([2]; wheat stored 1 month)?
The mortality at 25 ppm was 65%.

What about the mortality at 25 ppm ([2]; wheat stored 2 months) of the same molecule?
Its mortality at 25 ppm is 40%.

And the mortality at 25 ppm ([2]; wheat stored 3 months)?
The mortality at 25 ppm was 15%.

And the mortality at 50 ppm ([2]; wheat fresh)?
Its mortality at 50 ppm is 100%.

And the mortality at 50 ppm ([2]; wheat stored 1 month)?
The mortality at 50 ppm was 100%.

And the mortality at 50 ppm ([2]; wheat stored 2 months)?
The mortality at 50 ppm was 95%.

What about the mortality at 50 ppm ([2]; wheat stored 3 months) of the same molecule?
Its mortality at 50 ppm is 80%.

And the mortality at 1.5 ppm ([3]; wheat fresh)?
Its mortality at 1.5 ppm is 85%.

And the mortality at 1.5 ppm ([3]; wheat stored 1 month)?
The mortality at 1.5 ppm was 0%.

What about the mortality at 1.5 ppm ([3]; wheat stored 2 months) of the same molecule?
Its mortality at 1.5 ppm is 0%.

What about the mortality at 1.5 ppm ([3]; wheat stored 3 months) of the same molecule?
Its mortality at 1.5 ppm is 0%.

What about the mortality at 3 ppm ([3]; wheat fresh) of the same molecule?
The mortality at 3 ppm was 100%.

And the mortality at 3 ppm ([3]; wheat stored 1 month)?
Its mortality at 3 ppm is 0%.

And the mortality at 3 ppm ([3]; wheat stored 2 months)?
Its mortality at 3 ppm is 0%.

And the mortality at 3 ppm ([3]; wheat stored 3 months)?
The mortality at 3 ppm was 0%.

And the mortality at 6 ppm ([3]; wheat fresh)?
The mortality at 6 ppm was 100%.

And the mortality at 6 ppm ([3]; wheat stored 1 month)?
The mortality at 6 ppm was 0%.

What about the mortality at 6 ppm ([3]; wheat stored 2 months) of the same molecule?
The mortality at 6 ppm was 0%.

What about the mortality at 6 ppm ([3]; wheat stored 3 months) of the same molecule?
Its mortality at 6 ppm is 0%.

And the mortality at 12 ppm ([3]; wheat fresh)?
Its mortality at 12 ppm is 100%.

What about the mortality at 12 ppm ([3]; wheat stored 1 month) of the same molecule?
Its mortality at 12 ppm is 5%.

What about the mortality at 12 ppm ([3]; wheat stored 2 months) of the same molecule?
Its mortality at 12 ppm is 0%.

What about the mortality at 12 ppm ([3]; wheat stored 3 months) of the same molecule?
Its mortality at 12 ppm is 0%.

What about the mortality at 25 ppm ([3]; wheat fresh) of the same molecule?
The mortality at 25 ppm was 100%.

What about the mortality at 25 ppm ([3]; wheat stored 1 month) of the same molecule?
The mortality at 25 ppm was 75%.

And the mortality at 25 ppm ([3]; wheat stored 2 months)?
Its mortality at 25 ppm is 10%.

What about the mortality at 25 ppm ([3]; wheat stored 3 months) of the same molecule?
Its mortality at 25 ppm is 0%.

What about the mortality at 50 ppm ([3]; wheat fresh) of the same molecule?
Its mortality at 50 ppm is 100%.

What about the mortality at 50 ppm ([3]; wheat stored 1 month) of the same molecule?
Its mortality at 50 ppm is 100%.

And the mortality at 50 ppm ([3]; wheat stored 2 months)?
The mortality at 50 ppm was 45%.

What about the mortality at 50 ppm ([3]; wheat stored 3 months) of the same molecule?
The mortality at 50 ppm was 0%.

What about the mortality at 50 ppm ([4]; distance 1 cm) of the same molecule?
The mortality at 50 ppm was 100%.

And the mortality at 50 ppm ([4]; distance 2 cm)?
The mortality at 50 ppm was 100%.

What about the mortality at 50 ppm ([4]; distance 3 cm) of the same molecule?
The mortality at 50 ppm was 80%.

And the mortality at 50 ppm ([4]; distance 4 cm)?
The mortality at 50 ppm was 0%.

And the mortality at 50 ppm ([4]; distance 5 cm)?
The mortality at 50 ppm was 0%.

What about the mortality at 50 ppm ([4]; distance 6 cm) of the same molecule?
Its mortality at 50 ppm is 0%.

And the LD50 [5]?
Its LD50 is 50 mg/kg.
